This note sets out measurements from US5739112A, “Inhibitors of factor Xa” (Corvas International, Inc., priority 1995, dated 1998).

For orientation: pIC50 means the IC50 on a negative log10 scale, so that one unit is a factor of ten.

pIC50: −log10 of the molar value. Numbered stars: 1 amine (or outer) side, 2 acyl side, 3 side chain; on linkers, the order of the positions; unused ones are H or OH. Square brackets hold non-standard residues; d marks the D form. Peptide text beside a SMILES is read from it. * marks the point of attachment. 1Nal = N[C@@H](Cc1cccc2ccccc12)C(=O)O; 2Nal = N[C@@H](Cc1ccc2ccccc2c1)C(=O)O; d2Nal = N[C@H](Cc1ccc2ccccc2c1)C(=O)O; dPhg = N[C@@H](C(=O)O)c1ccccc1; Suc = O=C(CCC(=O)[*:2])[*:1]; Boc = CC(C)(C)OC(=O)* Bounds are passed on as bounds.

What all share (type): biochemical
In experiment [1] the target is T1, Human recombinant t-PA (Activase) (Homo sapiens, UniProt P00750).
T1 construct: purchased Genentech, Inc. Activase
T1 sequence (P00750 36-562): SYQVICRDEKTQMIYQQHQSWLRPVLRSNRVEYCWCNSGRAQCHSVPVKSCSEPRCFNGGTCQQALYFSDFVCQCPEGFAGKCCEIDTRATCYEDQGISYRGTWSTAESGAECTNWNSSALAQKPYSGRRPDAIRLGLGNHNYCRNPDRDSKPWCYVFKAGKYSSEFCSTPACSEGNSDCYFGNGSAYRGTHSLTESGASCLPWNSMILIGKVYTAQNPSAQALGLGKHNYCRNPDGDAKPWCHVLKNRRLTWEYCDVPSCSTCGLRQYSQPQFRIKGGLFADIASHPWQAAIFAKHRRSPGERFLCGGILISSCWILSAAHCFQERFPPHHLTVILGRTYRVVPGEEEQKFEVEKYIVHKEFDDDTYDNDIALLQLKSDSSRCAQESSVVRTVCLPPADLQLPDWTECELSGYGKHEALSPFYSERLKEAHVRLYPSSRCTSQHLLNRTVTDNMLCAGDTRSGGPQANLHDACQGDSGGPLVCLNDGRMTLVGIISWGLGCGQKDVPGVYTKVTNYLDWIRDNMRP
In words: tPA assay (substrate Pefachrome tPA). The following applies: for Percent Selectivity tPA: 100 times IC50 for factor Xa divided by IC50 for tPA; for pIC50: 60 min preincubation at room temperature, >25 means less than 50% inhibition at 25 μM. The method, then: (§1) To assay their activities, the compounds of the present invention are dissolved in buffer to give solutions containing concentrations ranging under assay concentrations from 0 to about 100 μM. The enzyme to be tested is then added to a solution containing a specified concentration of the test compound. Then after an incubation period, synthetic substrate for the enzyme being tested is added. The rate of substrate turnover is determined spectrophotometrically. The IC50 of the test compound is determined for each test compound in assays for factor Xa, factor XIa, thrombin and tPA. IC50 is that concentration of test compound giving 50% inhibition of the substrate turnover. Percent selectivity is used to indicate selectivity of a compound in inhibiting Factor Xa in comparison with either Factor XIa, thrombin or tPA. Percent selectivity of a particular compound for either Factor XIa, thrombin or tPA refers to a number obtained by dividing the product of one hundred and the IC50 of the compound for Factor Xa by the IC50 of the compound for either Factor XIa, thrombin or tPA.
(§2) The specificity of the peptide aldehydes through was determined by measurement of their IC50 against factor Xa, factor XIa, thrombin and tissue plasminogen activator (tPA). Peptide aldehyde which has been described in the art was run as a comparison. A specific concentration of enzyme and its substrate were challenged with varying concentrations: of inhibitor. IC50 is that concentration of inhibitor giving 50% inhibition of catalytic activity, under the assay conditions Specific assay procedures used are presented below.
Enzyme activity was determined using as substrate, Pefachrome tPA (O-methylsulfonate-D-hexahydrotyrosine-L-glycyl-L-argini ne-p-nit roanilide acetate salt) which was obtained from Centerchem, Inc. The substrate was made up in deionized water prior to use.
Human recombinant t-PA (Activase®) was obtained. from Genentech, Inc. The enzyme was reconstituted with water, then diluted into TBSA prior to use.
The assay was run by combining in appropriate wells 50 μL of TBSA, 50 μL of inhibitor in TBSA or TBSA (as negative control) and 50 μL of 4 nM human recombinant tPA or TBSA (as background control). After incubating this mixture for 60 minutes at room temperature, 50 μL of 4 mM Pefachrome tPA was added to each well and the initial rate of the change of optical density at 405 nm (OD405 nm) for each well was determined. OD405 nm was measured every 10 seconds for 5 minutes.

A further experiment concerns the target T2, Human α-thrombin (Homo sapiens, UniProt P00734).
T2 construct: purchased Enzyme Research Laboratories, Inc
As to the kind of experiment: Thrombin assay (chromogenic substrate S-2238). Conditions: for Percent Selectivity Thrombin: 100 times IC50 for factor Xa divided by IC50 for thrombin; for pIC50: 60 min preincubation at room temperature, >25 means less than 50% inhibition at 25 μM. The method, then:
as §1, §2
Enzyme activity was determined using as substrate, S2238 (D-phenylalanyl-L-pipecolyl-L-arginine-p-nitroanilide dihydrochloride) which was obtained from Kabi Diagnostica. The substrate was made up in deionized water prior to use.
Human α-thrombin was obtained from Enzyme Research Laboratories, Inc. The enzyme was diluted into TBSA prior to use.
The assay was run by combining in appropriate wells 50 μL of TBSA, 50 μL of inhibitor in TBSA or TBSA (as negative control) and 50 μL of 4 nM human α-thrombin or TBSA (as background control). After incubating this mixture for 60 minutes at room temperature, 50 μL of 0.24 mM S-2238 was added to each well and the initial rate of the change of optical density at 405 nm (OD405 nm) for each well was determined. OD405 nm was measured every 10 seconds for 5 minutes.

The next experiment addresses T3, Human factor XIa (Homo sapiens, UniProt P03951).
T3 construct: purchased Enzyme Research Laboratories, Inc
As to the kind of experiment: Factor XIa assay (chromogenic substrate S-2366). Conditions: for Percent Selectivity XIa: 100 times IC50 for factor Xa divided by IC50 for factor XIa; for pIC50: 60 min preincubation at room temperature, >25 means less than 50% inhibition at 25 μM. The method, then:
as §1, §2
Enzyme activity was determined using as substrate, S2366 (L-pyroglutamyl-L-prolyl-L-arginine-p-nitroanilide hydrochloride) which was obtained from Kabi Diagnostica. The substrate was made up in deionized water prior to use.
Human factor XIa was obtained from Enzyme Research Laboratories, Inc. The enzyme was diluted into TBSA prior to use.
The assay was run by combining in appropriate wells 50 μL of TBSA, 50 μL of inhibitor in TBSA or TBSA (as negative control) and 50 μL of 2 nM human Factor Xia or TBSA (as background control). After incubating this mixture for 60 minutes at room temperature, 50 μL of 6 mM S-2366 was added to each well and the initial rate of the change of the optical density at 405 nm (OD405 nm) for each well was determined. OD405 nm was measured every 10 seconds for 5 minutes.

A further experiment addresses T4, Human factor Xa (Homo sapiens, UniProt P00742).
T4 construct: Human factor X contains a light-chain subunit containing 139 amino acid residues; purchased Enzyme Research Laboratories
As to the kind of experiment: Factor Xa assay (chromogenic substrate S-2765). The following applies: for pIC50: 60 min preincubation at room temperature, TBSA pH 7.4; for Percent Selectivity Xa: taken as 100 by definition. The method, then:
as §1, §2
Enzyme activity was determined using as substrate, S2765 (N-a-benzyloxycarbonyl-D-argininyl-L-glycyl-L-arginine-p-nitroanilide dihydrochloride) which was obtained from Kabi Diagnostica. The substrate was made up in deionized water prior to use.
Human factor Xa was obtained from Enzyme Research Laboratories. The enzyme was diluted into TBSA prior to use.
The assay was run by combining in appropriate wells 50 μL of TBSA, 50 μL of inhibitor in TBSA or TBSA (as negative control) and 50 μL of 2 nM human Factor Xa or TBSA (as background control). After incubating this mixture for 60 minutes at room temperature, 50 μL of 1 mM S-2765 was added to each well and the initial rate of the change of the optical density at 405 nm (OD405 nm) for each well was determined. OD405 nm was measured every 10 seconds for 5 minutes.

T3 sequence (P03951 388-625 limits assumed): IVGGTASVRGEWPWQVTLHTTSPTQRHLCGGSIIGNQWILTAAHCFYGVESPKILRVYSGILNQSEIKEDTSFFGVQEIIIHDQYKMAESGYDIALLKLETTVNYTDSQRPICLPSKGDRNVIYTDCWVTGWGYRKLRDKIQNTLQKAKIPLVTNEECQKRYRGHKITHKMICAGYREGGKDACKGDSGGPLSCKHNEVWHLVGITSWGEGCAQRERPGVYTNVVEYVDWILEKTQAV
T3 sequence (P03951 19-387 partner limits assumed): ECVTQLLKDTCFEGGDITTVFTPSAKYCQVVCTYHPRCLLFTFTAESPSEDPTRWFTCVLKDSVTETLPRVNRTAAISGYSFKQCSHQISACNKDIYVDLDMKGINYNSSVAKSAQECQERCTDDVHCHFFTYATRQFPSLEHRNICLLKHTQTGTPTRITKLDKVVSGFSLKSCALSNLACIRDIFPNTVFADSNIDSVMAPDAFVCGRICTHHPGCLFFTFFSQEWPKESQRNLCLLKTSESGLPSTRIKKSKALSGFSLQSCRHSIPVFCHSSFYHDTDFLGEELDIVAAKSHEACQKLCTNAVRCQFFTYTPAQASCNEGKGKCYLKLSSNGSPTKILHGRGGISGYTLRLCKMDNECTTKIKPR
T4 sequence (P00742 235-488 limits assumed): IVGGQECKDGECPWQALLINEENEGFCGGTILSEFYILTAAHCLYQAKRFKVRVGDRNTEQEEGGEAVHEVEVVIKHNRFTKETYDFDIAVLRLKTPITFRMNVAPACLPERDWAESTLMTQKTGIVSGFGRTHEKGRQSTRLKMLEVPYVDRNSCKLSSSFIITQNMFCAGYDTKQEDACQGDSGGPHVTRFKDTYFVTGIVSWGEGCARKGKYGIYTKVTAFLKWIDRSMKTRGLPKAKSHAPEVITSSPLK
T4 sequence (P00742 41-179 partner limits assumed): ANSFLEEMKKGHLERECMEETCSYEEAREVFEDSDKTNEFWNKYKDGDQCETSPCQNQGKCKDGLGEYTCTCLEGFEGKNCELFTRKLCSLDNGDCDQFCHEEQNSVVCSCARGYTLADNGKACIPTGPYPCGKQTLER

Regarding `N=C(N)NCCC[C@@H](C=O)NC(=O)[C@H](Cc1cccc2ccccc12)NC(=O)[C@@H](Cc1ccccc1)NC(=O)CCC(=O)O` [[8], N-succinyl-D-phenylalanyl-L-3-(1-naphthyl)alanyl-L-argininal] (Suc-[dF]-[1Nal]-Arg-aldehyde), in experiment [1], the “Percent Selectivity tPA” value is recorded as < 0.1 and the pIC50 was < 4.60. Also, on Human α-thrombin, the “Percent Selectivity Thrombin” value was < 0.1 and the negative-log IC50 (pIC50) is < 4.60. Further, on Human factor XIa, the “Percent Selectivity XIa” value was determined as 0.12 and the pIC50 was 4.70. Moreover, at Human factor Xa, the negative-log IC50 (pIC50) was 7.64 and the “Percent Selectivity Xa” value is reported as 100.
`CC(C)(C)OC(=O)N[C@H](Cc1ccccc1)C(=O)N[C@@H](Cc1ccccc1)C(=O)N[C@H](C=O)CCCNC(=N)N` [[4], N-t-butoxycarbonyl-D-phenylalinyl-L-phenylalinyl-L-argininal] (Boc-[dF]-Phe-Arg-aldehyde): in experiment [1], the “Percent Selectivity tPA” value is listed as < 0.8 and the pIC50 is < 4.60. At Human α-thrombin, the “Percent Selectivity Thrombin” value was < 0.8 and the negative-log IC50 (pIC50) is < 4.60. For the same compound, on Human factor XIa, the “Percent Selectivity XIa” value was 0.8 and the pIC50 is 4.60. Also, at Human factor Xa, the negative logarithm of the IC50 (pIC50) is 6.68 and the “Percent Selectivity Xa” value worked out at 100.
In the case of `CC(C)(C)OC(=O)N[C@H](Cc1ccccc1)C(=O)N1CC[C@H](c2ccccc2)[C@H]1C(=O)N[C@H](C=O)CCCNC(=N)N` (relative stereo) [[10], N-t-butoxycarbonyl-D-phenylalanyl-L-(3-trans-phenyl)prolinyl-L-argininal], in experiment [1], the “Percent Selectivity tPA” value was < 2.5 and the pIC50 is < 4.60. On Human α-thrombin, the “Percent Selectivity Thrombin” value was < 2.5 and the negative logarithm of the IC50 (pIC50) is < 4.60. For the same compound, at Human factor XIa, the “Percent Selectivity XIa” value is < 2.5 and the negative logarithm of the IC50 (pIC50) is < 4.60. Moreover, at Human factor Xa, the negative logarithm of the IC50 (pIC50) is 6.20 and the “Percent Selectivity Xa” value came to 100.
`CC(C)(C)OC(=O)N[C@H](Cc1ccc2ccccc2c1)C(=O)N[C@@H](Cc1ccccc1)C(=O)N[C@H](C=O)CCCNC(=N)N` [[1], N-t-butoxycarbonyl-D-3-(2-naphthyl)alanyl-L-phenylalanyl-L-argininal] (Boc-[d2Nal]-Phe-Arg-aldehyde): in experiment [1], the “Percent Selectivity tPA” value was < 0.9 and the pIC50 was < 4.60. Also, on Human α-thrombin, the “Percent Selectivity Thrombin” value is 1.6 and the negative-log IC50 (pIC50) was 4.85. Also, at Human factor XIa, the “Percent Selectivity XIa” value is reported as 1.4 and the pIC50 is 4.80. On Human factor Xa, the negative logarithm of the IC50 (pIC50) was 6.66 and the “Percent Selectivity Xa” value came out at 100.
Regarding `CC(C)(C)OC(=O)N[C@H](Cc1ccccc1)C(=O)N[C@@H](Cc1cccc2ccccc12)C(=O)N[C@H](C=O)CCCNC(=N)N` [[5], N-t-butoxycarbonyl-D-phenylalanyl-L-3-(1-naphthyl)alanyl-L-argininal] (Boc-[dF]-[1Nal]-Arg-aldehyde), in experiment [1], the “Percent Selectivity tPA” value is given as < 0.1 and the pIC50 is < 4.60. Moreover, on Human α-thrombin, the “Percent Selectivity Thrombin” value is listed as 0.2 and the pIC50 is 4.89. Also, on Human factor XIa, the “Percent Selectivity XIa” value came to 0.2 and the negative-log IC50 (pIC50) is 4.85. For the same compound, on Human factor Xa, the pIC50 was 7.52 and the “Percent Selectivity Xa” value amounted to 100.
With `CC(=O)N[C@H](Cc1ccccc1)C(=O)N[C@@H](Cc1cccc2ccccc12)C(=O)N[C@H](C=O)CCCNC(=N)N` [[6], N-acetyl-D-phenylalanyl-L-3-(1-naphthyl)alanyl-L-argininal] (Ac-[dF]-[1Nal]-Arg-aldehyde), in experiment [1], the “Percent Selectivity tPA” value is reported as < 0.1 and the negative logarithm of the IC50 (pIC50) was < 4.60. Moreover, at Human α-thrombin, the “Percent Selectivity Thrombin” value is on record as < 0.1 and the pIC50 was < 4.60. Further, at Human factor XIa, the “Percent Selectivity XIa” value amounted to 7.8 and the negative logarithm of the IC50 (pIC50) was 6.49. On Human factor Xa, the pIC50 was 7.60 and the “Percent Selectivity Xa” value was determined as 100.
As for `CC(C)(C)OC(=O)N[C@H](Cc1ccccc1)C(=O)N[C@@H](Cc1ccc2ccccc2c1)C(=O)N[C@H](C=O)CCCNC(=N)N` [[3], N-t-butoxycarbonyl-D-phenylalanyl-L-3-(2-naphthyl)alanyl-L-argininal] (Boc-[dF]-[2Nal]-Arg-aldehyde), in experiment [1], the “Percent Selectivity tPA” value is recorded as < 3.6 and the pIC50 is < 4.60. On Human α-thrombin, the “Percent Selectivity Thrombin” value amounted to 3.6 and the pIC50 was 4.60. Moreover, at Human factor XIa, the “Percent Selectivity XIa” value was 3.6 and the negative-log IC50 (pIC50) was 4.60. On Human factor Xa, the pIC50 is 6.05 and the “Percent Selectivity Xa” value was 100.
As to `CC(C)CCC(=O)N[C@H](Cc1ccccc1)C(=O)N[C@@H](Cc1cccc2ccccc12)C(=O)N[C@H](C=O)CCCNC(=N)N` [[9]], at Human α-thrombin, the “Percent Selectivity Thrombin” value was < 0.68 and the negative-log IC50 (pIC50) is < 4.60. Moreover, on Human factor XIa, the “Percent Selectivity XIa” value is < 0.68 and the negative-log IC50 (pIC50) was < 4.60. On Human factor Xa, the pIC50 is 6.77 and the “Percent Selectivity Xa” value is 100.
On to `CC(C)(C)OC(=O)N[C@@H](C(=O)N[C@@H](Cc1ccccc1)C(=O)N[C@H](C=O)CCCN=C(N)N)c1ccccc1` [[2], N-t-Butoxycarbonyl-D-2-Phenylglycyl-L-phenylalanyl-L-Arainial] (Boc-[dPhg]-Phe-Arg-aldehyde), for which, in experiment [1], the “Percent Selectivity tPA” value is < 2.6 and the pIC50 was < 4.60. Besides, at Human α-thrombin, the “Percent Selectivity Thrombin” value is recorded as < 2.6 and the negative-log IC50 (pIC50) was < 4.60. For the same compound, on Human factor XIa, the “Percent Selectivity XIa” value was determined as 4.9 and the negative-log IC50 (pIC50) is 4.89. Further, on Human factor Xa, the pIC50 was 6.19 and the “Percent Selectivity Xa” value turned out to be 100.
On to `CC(C)(C)OC(=O)N[C@H](Cc1ccccc1)C(=O)N1CCC[C@H]1C(=O)N[C@H](C=O)CCCNC(=N)N` [[23], N-Boc-D-phenylalanyl-L-prolyl-L-argininal, reference compound], for which, in experiment [1], the “Percent Selectivity tPA” value is 518 and the pIC50 is 5.96. Further, on Human α-thrombin, the “Percent Selectivity Thrombin” value was 22,800 and the negative-log IC50 (pIC50) was 7.60. Moreover, at Human factor XIa, the “Percent Selectivity XIa” value came to 317 and the pIC50 was 5.74. Besides, at Human factor Xa, the pIC50 is 5.24 and the “Percent Selectivity Xa” value came out at 100.
